Common to all, as to assay type: biochemical
Assay [1] has as its system AIDA-lipase (pAIDA-lipase): Bacillus sp. 42 thermostable organic solvent tolerant lipase (encoding nucleic acid SEQ ID NO: 15) fused to AIDA-1 autotransporter …. Put plainly: Lipase activity, continuous spectrophotometric rate determination at 400 nm, Michaelis-Menten fit, AIDA-lipase on minicell surface. Particulars: 4-nitrophenyl-butyrate 0-5 mM, 37° C., pH 7.2; Cells/Well: 99,946,667; best-fit value. The procedure: (§1) Kinetic analysis of the reaction was analyzed by continuous spectrophotometric rate determination at 400 nm.
This construction was conducted with primarily designed pAIDA-1 plasmid (from Addgene, Cambridge, MA) in which the lipase-encoding gene was ligated into the passenger domain within the AIDA-I autotransporter using KpnI and SacI sites as illustrated in FIG. 4A. The tags existed on the pAIDA-1 plasmid prior were used for further analysis on lipase expression. After the ligation is completed, the 6× His tag and HRV3C site are located at N-terminus of the lipase-encoding gene and the Myc tag and TEV site are placed at C-terminus of the lipase-encoding gene. The 6× His tag, which is the 5′ end of the surface-expressed fusion lipase protein was used for Cobalt immobilized metal affinity chromatography (IMAC) and for immunofluorescent staining with THE His Tag antibody [FITC] from Genscript. […]
In order to further confirm presence of the functional lipase-fusion protein in both the elution fraction from the protein purification and the surface of the cell, a lipase activity assay was designed using the lipase substrate, 4-nitrophenyl-butyrate. […] The pathlength, 0.625 cm, was calculated from the known volume of the well (200 uL) and the well's surface area (0.32 cm^2). […]

The subject of assay [2] is Brk-lipase: Bacillus sp. 42 thermostable organic solvent tolerant lipase (encoding nucleic acid SEQ ID NO: 15) fused to BrkA autotransporter, on the surface of …. The assay can be described thus: Lipase activity, continuous spectrophotometric rate determination at 400 nm, Michaelis-Menten fit, Brk-lipase on minicell surface. Particulars: 4-nitrophenyl-butyrate 0-5 mM, 37° C., pH 7.2; Cells/Well: 17,706,667; best-fit value. The procedure: as §1
For a bacterial surface display system named as BrkAutoDisplay based on the structure of autotransporter BrkA (Bordetella serum-resistance killing protein A) was used to host an exogenous gene encoding lipase. To construct a recombinant Brk-lipase expression vector, Brk autotransporter gene was first cloned into the pGEX-6P-1 plasmid. Using BamHI and EcoRI restriction sites, the lipase-encoding gene was ligated with the Brk autotransporter gene, as illustrated in FIG. 6A. […]
(§2) In order to further confirm presence of the functional lipase-fusion protein in both the elution fraction from the protein purification and the surface of the cell, a lipase activity assay was designed using the lipase substrate, 4-nitrophenyl-butyrate. […] The pathlength, 0.625 cm, was calculated from the known volume of the well (200 uL) and the well's surface area (0.32 cm^2).
For the enzymatic assay, required are the reaction buffer (100 mM Sodium Phosphate Buffer solution pH 7.2, 0.5% (v/v) Triton-X 100, 150 mM Sodium Chloride), the enzyme/cell solution in 1×PBS, and the substrate solution which is varying concentrations of 4-nitrophenyl-butyrate in acetonitrile. […] Vmax and Km were calculated using GraphPad Prism Michaelis-Menten fitting parameters. […]

The subject of assay [3] is InaK-lipase: Bacillus sp. 42 thermostable organic solvent tolerant lipase (encoding nucleic acid SEQ ID NO: 15) fused to Ice Nucleation Protein InaK, on the …. The assay can be described thus: Lipase activity, continuous spectrophotometric rate determination at 400 nm, Michaelis-Menten fit, InaK-lipase on minicell surface. Particulars: 4-nitrophenyl-butyrate 0-5 mM, 37° C., pH 7.2; Cells/Well: 107,840,000; best-fit value. As to the method:
as §1
Another bacterial surface display protein, Ice Nucleation Protein K (InaK) was used for expressing recombinant lipase proteins fused to anchoring linker protein (motif) that direct the incorporated fusion protein on the surface of minicells. Like BrkAutoDisplay, polynucleotide encoding Inak transmembrane protein and the lipase-encoding gene were inserted into the pGEX-6P-1 vector for producing the bacterial surface display lipase protein as illustrated in FIG. 7A. […]
as §2
For the enzymatic assay, required are the reaction buffer (100 mM Sodium Phosphate Buffer solution pH 7.2, 0.5% (v/v) Triton-X 100, 150 mM Sodium Chloride), the enzyme/cell solution in 1×PBS, and the substrate solution which is varying concentrations of 4-nitrophenyl-butyrate in acetonitrile. […] Activity was determined from a Michaelis-Menten fit of the calculated rates resulting from varying the substrate concentration according to the Table 10. […]

For orientation: Km means the concentration of substrate that gives half-maximal velocity. As a reminder, the Vmax is the rate approached at saturating substrate.

`CCCC(=O)Oc1ccc([N+](=O)[O-])cc1` [4-nitrophenyl-butyrate]: the Km in assay [1] worked out at 180 µM; in assay [2] it was 221 µM; in assay [3] it was 302 µM. The Vmax in assay [1] amounted to 0.08174 µM/s; in assay [2], 0.04453 µM/s; in assay [3], 0.06354 µM/s.

The values above are taken from patent US12606813B2, “Compositions and methods for enzyme immobilization” (priority 2017, dated 2026).
